# Test results: patent publication US20260224688A1, “HELPER LIPIDS FOR NUCLEIC ACID DELIVERY” (SANOFI PASTEUR INC., priority 2023, published 2026)
# How the values were obtained:
# [1] = Dynamic light scattering of lipid nanoparticles (size, PDI); type: physicochemical
# Description: (§1) Lipid nanoparticle formulations 3 were prepared by Process A at a molar ratio of 40:1.5:30:28.5 (Cationic Lipid: DMG-PEG2000: Cholesterol: Helper Lipid) with the cationic lipids and helper lipids disclosed in the tables below. The Polydispersity Index (Pdl) of lipid nanoparticles can be determined by diluting the formulation in 10% trehalose at about 0.1 mg/ml mRNA concentration and then measuring the size on Malvern zetasizer. The lipid nanoparticle size can be obtained with Malvern Zetasizer Nano-ZS.
# Dynamic light scattering (DLS) measurements were performed using a Malvern Instruments Zetasizer with a backscattering detector angle of 173° and a 4-mW, 633-nm He—Ne laser (Worcestershire, UK). The samples were analyzed by diluting in 10% Trehalose and measuring the size and Poly dispersity Index (PDI) in an optical grade polystyrene cuvette.
# [2] = mRNA encapsulation efficiency of lipid nanoparticles; type: physicochemical; conditions: for Encapsulation efficiency (EE): LNP with cationic lipid CL-A
# Excerpt: In embodiments, the lipid nanoparticle encapsulates a nucleic acid, optionally an mRNA encoding a peptide or protein. In embodiments, the lipid nanoparticle encapsulates an mRNA encoding a peptide or protein, optionally for use in a vaccine. In embodiments, the peptide is an antigen. As used herein, the phrase “encapsulation percentage” refers to the fraction of therapeutic agent (e.g. mRNA) that is effectively encapsulated within a liposomal-based vehicle (e.g. a lipid nanoparticle) relative to the initial fraction of therapeutic agent present in the lipid phase. In embodiments, the lipid nanoparticles have an encapsulation percentage for mRNA of at least 50%. In embodiments, the lipid nanoparticles have an encapsulation percentage for mRNA of at least 55%. In embodiments, the lipid nanoparticles have an encapsulation percentage for mRNA of at least 60%. In embodiments, the lipid nanoparticles have an encapsulation percentage for mRNA of at least 65%. In embodiments, the lipid nanoparticles have an encapsulation percentage for mRNA of at least 70%. In embodiments, the lipid nanoparticles have an encapsulation percentage for mRNA of at least 75%. In embodiments, the lipid nanoparticles have an encapsulation percentage for mRNA of at least 80%. In embodiments, the lipid nanoparticles have an encapsulation percentage for mRNA of at least 85%. In embodiments, the lipid nanoparticles have an encapsulation percentage for mRNA of at least 90%. In embodiments, the lipid nanoparticles have an encapsulation percentage for mRNA of at least 95%. In embodiments, the encapsulation percentage is calculated by performing the Ribogreen assay (Invitrogen) with and without the presence of 0.1% Triton-X 100.
# The lipid nanoparticles in the examples of the present invention were formulated using Process A of WO 2018/089801 (see, e.g., Example 1 and FIG. 1 of WO 2018/089801). Process A (“A”) relates to a conventional method of encapsulating mRNA by mixing mRNA with a mixture of lipids, without first pre-forming the lipids into lipid nanoparticles. In an exemplary process, an ethanolic solution of a mixture of lipids (cationic lipid, phosphatidylethanolamine, cholesterol, and polyethylene glycol-lipid) at a fixed lipid to mRNA ratio were combined with an aqueous buffered solution of target mRNA at an acidic pH under controlled conditions to yield a suspension of uniform LNPs. After ultrafiltration and diafiltration into a suitable diluent system, the resulting nanoparticle suspensions were diluted to final concentration, filtered, and stored frozen at −80° C. until use.
# as §1
# hEPO [3] = assay: IM EPO expression of LNPs containing new helper lipids (hEPO in serum by ELISA); type: in vivo, female BALB/cJ mice; conditions: single IM injection; for 24-h EPO: serum 24 hours post injection
# Description: Lipid nanoparticles were formulated containing the four lipid components shown below at a ratio of 40:30:28.5:1.5, complexed with a hEPO messenger RNA. • Cationic lipid, 40 mol % • Phospholipid (PEA) helper lipid, 30 mol % • Cholesterol, 28.5 mol % • DMG-PEG-2K (1,2-dimyristoyl-rac-glycero-3-methoxypolyethyleneglycol), 1.5 mol % The cationic lipid component of each formulation was selected from the compounds in the table below: […]
# EPO expression studies were conducted with female BALB/cJ mice 6-8 weeks of age. Mice were dosed with […] EPO mRNA in 30 μL of LNPs by a single intramuscular (IM) injection into the gastrocnemius leg muscle. Blood samples were taken 6 and 24 hours post injection and hEPO levels were measured in the blood serum of the mice using an ELISA assay according to the manufacture's protocol. WO2022/099003 A1 also describes an in vivo assay for intramuscular administration (e.g. on page 46, paragraph [00206]).
# hEPO [4] = assay: IV EPO expression of LNPs (tail vein injection); type: in vivo, female BALB/cJ mice; conditions: cationic lipid CL-0137, helper lipid 30 mol %; 0.017 μg EPO mRNA tail vein; 6 hours; DOPE = 1
# Description: Lipid nanoparticles were formulated containing the four lipid components shown below at a ratio of 40:30:28.5:1.5, complexed with a hEPO messenger RNA. • Cationic lipid CL-0137, 40 mol % • Helper lipid, 30 mol % • Cholesterol, 28.5 mol % • DMG-PEG-2K (1,2-dimyristoyl-rac-glycero-3-methoxypolyethyleneglycol), 1.5 mol %
# EPO expression studies were conducted with female BALB/cJ mice 6-8 weeks of age. Mice were dosed with 0.017 μg EPO mRNA LNPs in a volume of 5 ul by a single tail vein injection. Blood samples were taken 6 hours post injection and hEPO levels were measured in the blood serum of the mice using an ELISA assay according to the manufacture's protocol.
# [5] = LNP with cationic lipid CL-A, hEPO mRNA, 40:30:28.5:1.5
# [6] = CL-A LNP, 0.1 μg EPO mRNA in 30 μL, serum 6 hours post injection
# [7] = CL-B LNP, serum 6 hours post injection
compound,measurement,setting,value
"CCCCCCCCC(CCCCC)COC(=O)CCC(=O)OCC(COP(=O)(O)OCCN(C)C)OC(=O)CCC(=O)OCC(CCCCC)CCCCCCCC (stereo not shown) [Compound 10, O,O′-(3-(((2-(Dimethylamino)ethoxy)(hydroxy)phosphoryl)-oxy)propane-1,2-diyl) bis(2-pentyldecyl) disuccinate)]",Polydispersity Index (PDI),[1]; LNP with cationic lipid CL-A,0.046
same,Size,[1]; [5],171 nm
same,PDI,[1]; LNP with cationic lipid CL-B,0.086
same,Size,[1]; LNP with cationic lipid CL-B,95.9 nm
same,PDI,[1]; LNP with cationic lipid CL-C,0.022
same,Size,[1]; LNP with cationic lipid CL-C,89.3 nm
same,PDI,[1]; LNP with cationic lipid CL-D,0.129
same,Size,[1]; LNP with cationic lipid CL-D,100.5 nm
same,Encapsulation efficiency (EE),[2],90%
same,EE,[2]; LNP with cationic lipid CL-B,83%
same,EE,[2]; LNP with cationic lipid CL-C,84%
same,EE,[2]; LNP with cationic lipid CL-D,93%
same,6-h EPO,hEPO [3]; [6],20.227 ng/mL
same,24-h EPO,hEPO [3]; CL-A LNP,10.447 ng/mL
same,6-h EPO,hEPO [3]; [7],12.9 ng/mL
same,24-h EPO,hEPO [3]; CL-B LNP,10.4 ng/mL
same,6-h EPO,hEPO [3]; CL-C LNP,10.3 ng/mL
same,6-h EPO,"hEPO [3]; CL-C LNP, (6-h)",14.8 ng/mL
same,Normalized Mean IV EPO expression,hEPO [4],1.72
"CCCCCCCCOC(=O)CCCCCCCC(=O)OC(COC(=O)CCCCCCC(=O)OC(CCCCCCCC)CCCCCCCC)COP(=O)(O)OCCN(C)C (stereo not shown) [Compound 11, 1-(1-(((2-(Dimethylamino)ethoxy)(hydroxy)phosphoryl)oxy)-3-((8-(heptadecan-9-yloxy)-8-oxooctanoyl)oxy)propan-2-yl) 9-octyl nonanedioate]",Polydispersity Index (PDI),[1]; LNP with cationic lipid CL-A,0.068
same,Size,[1]; [5],173 nm
same,PDI,[1]; LNP with cationic lipid CL-B,0.066
same,Size,[1]; LNP with cationic lipid CL-B,102.1 nm
same,PDI,[1]; LNP with cationic lipid CL-C,0.119
same,Size,[1]; LNP with cationic lipid CL-C,85.5 nm
same,PDI,[1]; LNP with cationic lipid CL-D,0.121
same,Size,[1]; LNP with cationic lipid CL-D,96.6 nm
same,Encapsulation efficiency (EE),[2],94%
same,EE,[2]; LNP with cationic lipid CL-B,88%
same,EE,[2]; LNP with cationic lipid CL-C,86%
same,EE,[2]; LNP with cationic lipid CL-D,93%
same,6-h EPO,hEPO [3]; [6],19.251 ng/mL
same,24-h EPO,hEPO [3]; CL-A LNP,11.25 ng/mL
same,6-h EPO,hEPO [3]; [7],5.2 ng/mL
same,24-h EPO,hEPO [3]; CL-B LNP,4.8 ng/mL
same,6-h EPO,hEPO [3]; CL-C LNP,7.4 ng/mL
same,6-h EPO,"hEPO [3]; CL-C LNP, (6-h)",8.7 ng/mL
same,Normalized Mean IV EPO expression,hEPO [4],1.17
"CCCCCCCCC(CCCCCCCC)OC(=O)CCCCCCC(=O)OCC(COP(=O)(O)OCCN(C)C)OC(=O)CCCCCCC(=O)OC(CCCCCCCC)CCCCCCCC (stereo not shown) [Compound 12, O′^1,O^1-(3-(((2-(Dimethylamino)ethoxy)(hydroxy)phosphoryl)-oxy)propane-1,2-diyl) 8-di(heptadecan-9-yl) di(octanedioate)]",Polydispersity Index (PDI),[1]; LNP with cationic lipid CL-A,0.050
same,Size,[1]; [5],160 nm
same,PDI,[1]; LNP with cationic lipid CL-B,0.132
same,Size,[1]; LNP with cationic lipid CL-B,109.6 nm
same,PDI,[1]; LNP with cationic lipid CL-C,0.072
same,Size,[1]; LNP with cationic lipid CL-C,110.1 nm
same,PDI,[1]; LNP with cationic lipid CL-D,0.094
same,Size,[1]; LNP with cationic lipid CL-D,113.4 nm
same,PDI,[1]; LNP with cationic lipid CL-E,0.072
same,Size,[1]; LNP with cationic lipid CL-E,112.6 nm
same,Encapsulation efficiency (EE),[2],93%
same,EE,[2]; LNP with cationic lipid CL-B,93%
same,EE,[2]; LNP with cationic lipid CL-C,90%
same,EE,[2]; LNP with cationic lipid CL-D,92%
same,EE,[2]; LNP with cationic lipid CL-E,91%
same,6-h EPO,hEPO [3]; [6],28.9209 ng/mL
same,24-h EPO,hEPO [3]; CL-A LNP,19.526 ng/mL
same,6-h EPO,hEPO [3]; [7],39.6 ng/mL
same,24-h EPO,hEPO [3]; CL-B LNP,24 ng/mL
same,6-h EPO,hEPO [3]; CL-C LNP,26.2 ng/mL
same,6-h EPO,"hEPO [3]; CL-C LNP, (6-h)",38.4 ng/mL
same,Normalized Mean IV EPO expression,hEPO [4],2.23
CCCCCCCCC(CCCCCCCC)OC(=O)CCCCCCC(=O)OC[C@@H](COP(=O)(O)OCCN(C)C)OC(=O)CCCCCCC(=O)OC(CCCCCCCC)CCCCCCCC [Compound 13],Polydispersity Index (PDI),[1]; LNP with cationic lipid CL-A,0.048
same,Size,[1]; [5],166 nm
same,PDI,[1]; LNP with cationic lipid CL-B,0.127
same,Size,[1]; LNP with cationic lipid CL-B,141.9 nm
same,PDI,[1]; LNP with cationic lipid CL-C,0.112
same,Size,[1]; LNP with cationic lipid CL-C,98.0 nm
same,Encapsulation efficiency (EE),[2],94%
same,EE,[2]; LNP with cationic lipid CL-B,96%
same,EE,[2]; LNP with cationic lipid CL-C,93%
same,6-h EPO,hEPO [3]; [6],8.348 ng/mL
same,6-h EPO,hEPO [3]; [7],53.8 ng/mL
same,6-h EPO,"hEPO [3]; CL-C LNP, (6-h)",64.4 ng/mL
same,Normalized Mean IV EPO expression,hEPO [4],1.47
